Consider one sequence from patent US9127040B2, “Regulation of sodium channels by PLUNC proteins” (The University of North Carolina at Chapel Hill, priority 2011, dated 2015).

The target of this test is T1, βENaC (Homo sapiens, UniProt P51168).
T1 construct: expressed in transfected cells; host or cells: HEK293T cells (lysate)
T1 sequence (P51168 1-640): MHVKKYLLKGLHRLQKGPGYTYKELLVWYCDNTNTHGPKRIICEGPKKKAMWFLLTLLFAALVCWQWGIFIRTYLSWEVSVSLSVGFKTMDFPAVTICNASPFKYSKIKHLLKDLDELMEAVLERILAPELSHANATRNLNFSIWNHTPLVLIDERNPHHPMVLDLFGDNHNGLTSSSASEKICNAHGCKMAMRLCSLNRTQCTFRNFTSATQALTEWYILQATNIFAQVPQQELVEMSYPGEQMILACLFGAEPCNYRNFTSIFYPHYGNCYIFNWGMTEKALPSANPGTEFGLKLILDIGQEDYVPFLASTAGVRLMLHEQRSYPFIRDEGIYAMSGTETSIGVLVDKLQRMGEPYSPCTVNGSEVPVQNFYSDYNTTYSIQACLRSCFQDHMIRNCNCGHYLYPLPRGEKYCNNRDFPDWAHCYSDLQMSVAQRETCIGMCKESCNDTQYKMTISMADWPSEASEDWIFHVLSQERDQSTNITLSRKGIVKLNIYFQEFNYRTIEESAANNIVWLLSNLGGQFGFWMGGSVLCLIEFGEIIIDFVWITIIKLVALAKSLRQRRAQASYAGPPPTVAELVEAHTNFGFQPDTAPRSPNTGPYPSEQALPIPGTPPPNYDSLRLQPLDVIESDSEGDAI
The experiment in a line: Biotinylated peptide pull-down of ENaC subunits from HEK293T cells. The test is classed as binding. Here is the method: HEK293T cells were transfected with double-tagged human ENaC subunits with HA and V5 epitopes at the N- and C-termini, respectively, in combination with wild-type untagged subunit cDNA. When all three ENaC subunits were expressed, 0.5 μg of each subunit were transfected per well. When expressed individually, 0.75 μg of the subunit were transfected per well. The transfected cells were lysed 24 h later using NP-40 buffer with 1× complete EDTA-free protease inhibitor (Roche, Basel, Switzerland). The lysate was centrifuged at 16,300×g for 15 minutes at 4° C. and the supernatant collected. Protein concentration was determined using the BCA assay and 500 μg of protein plus 0.25 mg peptide and 100 μL of neutravidin were added to a spin column and rotated end-over-end at 4° C. for 24 h (all ThermoFisher Scientific, Rockford, Ill., USA). Flow-through was collected by centrifugation at 1000×g for 30 s. The beads were then washed 5× with NP-40 buffer. Bound protein was eluted by boiling at 95° C. for 10 minutes in 75 μL of 2×LDS NuPAGE sample buffer with 1× sample reducing agent followed by centrifugation at 16,300×g for 2 minutes. Samples were resolved on 4-12% Bis-Tris gels in MES and transferred to a nitrocellulose membrane using iBlot, setting P3 for 8 min (Invitrogen, Carlsbad, Calif., USA). The membrane was probed using 1:1000 anti-V5 antibody (Invitrogen, Carlsbad, Calif., USA) overnight at 4° C. in 3% fish gelatin in TBS-T. The blot was then incubated for 1 h at room temperature with an ECL sheep anti-mouse IgG secondary antibody and detected by ECL reagent (ThermoFisher Scientific, Waltham, Mass., USA) or by incubation with a goat anti-mouse IRDye secondary antibody and analyzed by an Odyssey infrared imaging system (LI-COR Biosciences, Lincoln, Nebr., USA).
Peptide pull-down assays were performed as described above. Samples were eluted by the addition of 100 μL of 0.1 M sodium citrate, pH 5.5, 0.1% SDS to the beads and incubating at 100° C. for 2 minutes, followed by centrifugation at 16,300×g for 2 minutes. […]

Ends that are not written are not given here.

On to GGLPVPLDQTLPLNVNPA [S18], for which, where the note is “EndoH treated elution, tunicamycin treated cells”, the “glycosylation dependence of β-ENaC interaction” value is “glycosylation dependent”. For the same sequence, the “binding to βENaC (pull-down)” value (subunits individually expressed, biotinylated peptide) is on record as “binds exclusively to βENaC”.
